Experimental data from PMC12395308 (ACS Central Science, 2025).
Values after ≈ are worked out from the molar mass of the structure shown.

What was measured:
[1] = Aqueous stability in acidic and basic buffer (HPLC); settings: post 24 h of incubation; for chemical stability, pH (7.6): percentage of parent remaining: basic buffer
[2] = In vivo plasma exposure after repetitive single oral dosing for 10 consecutive days; settings: for eAUC20m–6h (AcHz): 10th dose, oral, molar equivalent of 10 mg/kg INH
[3] = Lipophilicity (logD) by shake flask method
[4] = Derivatization-based quantification of hydrazine in mice plasma using LC-MS; settings: for plasma concentration of in vivo released Hz: post 24hrs of 6th dose, repetitive oral dosing for six days; for plasma level of released Hz: single oral dose (10 mg/kg INH or equivalent), all time points 0.083–24 h
[5] = Human liver microsomal stability analysis; settings: for percentage of 1d/INH remaining after 2 h of incubation, human liver microsomes: 50 μM, 1 mg/mL microsomes, 1 mM NADPH
[6] = Comparative pharmacokinetic analysis after a single intravenous dose
[7] = Complete pharmacokinetic analysis after a single oral dose; settings: for plasma level of AcHz formed in vivo: all time points 0.083–24 h
[8] = system: pyridoxal and pyridoxal-5′-phosphate; assay: Quantification of pyridoxal and pyridoxal-5-phosphate in mice liver; settings: repeat-dose study; INH 90 mg/kg, 1d 117.5 mg/kg
[9] = Aqueous solubility in Tris HCl buffer (pH 7.4), shake flask method; settings: 37 °C, pH 7.4, aqueous buffer, thermodynamic from solid
[10] = Comparative plasma exposure after a single oral dose at three incremental dose levels; settings: for plasma concentration of INH (mean): oral 1mg/Kg; for concentration at 2 h / concentration at 6 h: Balb/C, mouse, plasma, po
[11] = Chemical stability in neat DMSO (UV spectrophotometer); settings: post 24 h of incubation
[12] = In vivo plasma exposure after a single oral dose (RACE-PK); settings: single oral dose 10 mg/kg
[13] = Mouse liver homogenate conversion assay; type: in vitro ADME
[14] = Intestinal homogenate conversion assay; type: in vitro ADME, mice; settings: 50 μg/mL
[15] = Bioconversion of prodrugs in plasma, ex vivo (human); settings: 200 μg/mL
[16] = Bioconversion of prodrugs in plasma, ex vivo (mice); settings: 200 μg/mL
[17] = Stomach homogenate conversion assay; type: in vitro ADME, mice; settings: 50 μg/mL
[18] = Balb/C, mouse, plasma, iv, 1 mg/kg
[19] = Balb/C, mouse, plasma, po, 10 mg/kg of INH (prodrugs at molar equivalent)

NNC(=O)c1ccncc1 [INH, Isoniazid, reference compound]
chemical stability, pH (3.0): percentage of parent remaining ([1]; acidic buffer): 100.0% | chemical stability, pH (7.6): percentage of parent remaining [1]: 100.0% | eAUC20m–6h (AcHz) [2]: BLQ ^d | feed intake per cage ([2]; day 0, cage of n=3): 9 g | feed intake per cage ([2]; day 1, cage of n=3): 13 g | feed intake per cage ([2]; day 2, cage of n=3): 11 g | feed intake per cage ([2]; day 3, cage of n=3): 9 g | feed intake per cage ([2]; day 4, cage of n=3): 11.5 g | feed intake per cage ([2]; day 5, cage of n=3): 15.5 g | feed intake per cage ([2]; day 6, cage of n=3): 13.5 g | feed intake per cage ([2]; day 7, cage of n=3): 14 g | feed intake per cage ([2]; day 8, cage of n=3): 14 g | feed intake per cage ([2]; day 9, cage of n=3): 15 g | feed intake per cage ([2]; day 10, cage of n=3): 15 g | logD [3]: -0.8 | plasma concentration of in vivo released Hz [4]: BLQ | plasma level of released Hz [4]: BLQ | percentage of 1d/INH remaining after 2 h of incubation, human liver microsomes [5]: 66% | plasma concentration of released INA (mean) ([6]; single IV dose, 0.33 h): BLQ | plasma concentration of released INA (mean) ([6]; single IV dose, 1 h): BLQ | plasma concentration of released AcINH (mean) ([6]; single IV dose, 2 h): BLQ | plasma concentration of released INA (mean) ([6]; single IV dose, 2 h): BLQ | plasma concentration of released AcINH (mean) ([6]; single IV dose, 4 h): BLQ | plasma concentration of released INA (mean) ([6]; single IV dose, 4 h): BLQ | plasma concentration of released AcINH (mean) ([6]; single IV dose, 6 h): BLQ | plasma concentration of released INA (mean) ([6]; single IV dose, 6 h): BLQ | plasma concentration of released AcINH (mean) ([6]; single IV dose, 8 h): BLQ | plasma concentration of released INA (mean) ([6]; single IV dose, 8 h): BLQ | plasma concentration of released AcINH (mean) ([6]; single IV dose, 24 h): BLQ | plasma concentration of released INA (mean) ([6]; single IV dose, 24 h): BLQ | plasma concentration of released INA (mean) ([7]; single oral dose, 4 h): BLQ | plasma concentration of free INH (mean) ([7]; single oral dose, 6 h): BLQ | plasma concentration of released AcINH (mean) ([7]; single oral dose, 6 h): BLQ | plasma concentration of released INA (mean) ([7]; single oral dose, 6 h): BLQ | plasma concentration of free INH (mean) ([7]; single oral dose, 24 h): BLQ | plasma concentration of released AcINH (mean) ([7]; single oral dose, 24 h): BLQ | plasma concentration of released INA (mean) ([7]; single oral dose, 24 h): BLQ | plasma level of AcHz formed in vivo ([7]; single oral dose): BLQ | liver tissue levels of pyridoxal and pyridoxal-5′-phosphate [8]: comparable | solubility at 24 h [9]: 610 mg/mL (≈ 4450 mM) | plasma concentration of INH (mean) ([10]; 2 h): BLQ | plasma concentration of INH (mean) ([10]; 6 h): BLQ | chemical stability, DMSO: percentage of parent remaining [11]: 100.0%

CC(C)OC(=O)NNC(=O)c1ccncc1.Cl [prodrug 1d]
chemical stability, pH (7.6): percentage of parent remaining [1]: 100.0% | plasma concentration of AcINH at 20 min [12]: BLQ | plasma eAUC20m–120m (AcINH) ([12]; n=3, 10 mg/kg): BLQ and below the limit of quantification and BLQ ^d | percentage of 1d remaining after 2 h of incubation, mouse liver homogenate ([13]; 37 °C): 27% | eAUC5–120m of 1d, mouse liver homogenate ([13]; 2 h incubation): 261,525 ng·h/mL | eAUC0–20h in intestinal homogenate, prodrug ([14]; 20 h): 728,889 ng·h/mL | percentage of prodrug remaining after 20 h of incubation, intestine homogenate ([14]; ex vivo): 87% | eAUC20m–6h (AcHz) [2]: BLQ ^d | feed intake per cage ([2]; day 0, cage of n=3): 11 g | feed intake per cage ([2]; day 1, cage of n=3): 11.5 g | feed intake per cage ([2]; day 2, cage of n=3): 10.5 g | feed intake per cage ([2]; day 3, cage of n=3): 10 g | feed intake per cage ([2]; day 4, cage of n=3): 11 g | feed intake per cage ([2]; day 5, cage of n=3): 14.5 g | feed intake per cage ([2]; day 6, cage of n=3): 12 g | feed intake per cage ([2]; day 7, cage of n=3): 12 g | feed intake per cage ([2]; day 8, cage of n=3): 13.5 g | feed intake per cage ([2]; day 9, cage of n=3): 12.5 g | feed intake per cage ([2]; day 10, cage of n=3): 12.5 g | logD [3]: 0.2 | plasma concentration of in vivo released Hz [4]: BLQ | plasma level of released Hz [4]: BLQ | percentage of 1d/INH remaining after 2 h of incubation, human liver microsomes [5]: 77% | eAUC0–120m of 1d, human liver microsomes ([5]; 2 h incubation): 80,176 ng·h/mL | % of prodrug remaining at 20 h, human plasma ([15]; 37 °C, ex vivo): 40.1% | eAUC20m–20h in human plasma, prodrug ([15]; 20 h ex vivo incubation): 1196 ± 308 ng·h/mL | AUC [6, 18]: 18 ± 1 ng·h/mL | Cmax [6, 18]: 90 ± 5 ng/mL | Tmax [6, 18]: 4.8 min | Vd [6, 18]: 21 L/kg | clearance [6, 18]: 1780 mL/min/kg | concentration at 0.33 h [6, 18]: 53.6 ng/mL | plasma concentration of released AcINH (mean) ([6]; single IV dose, 0.33 h): BLQ | plasma concentration of released INA (mean) ([6]; single IV dose, 0.33 h): BLQ | plasma concentration of released AcINH (mean) ([6]; single IV dose, 1 h): BLQ | plasma concentration of released INA (mean) ([6]; single IV dose, 1 h): BLQ | plasma concentration of unchanged 1d (mean) ([6]; single IV dose, 1 h): BLQ | plasma concentration of released AcINH (mean) ([6]; single IV dose, 2 h): BLQ | plasma concentration of released INA (mean) ([6]; single IV dose, 2 h): BLQ | plasma concentration of unchanged 1d (mean) ([6]; single IV dose, 2 h): BLQ | plasma concentration of released AcINH (mean) ([6]; single IV dose, 4 h): BLQ | plasma concentration of released INA (mean) ([6]; single IV dose, 4 h): BLQ | plasma concentration of unchanged 1d (mean) ([6]; single IV dose, 4 h): BLQ | plasma concentration of released AcINH (mean) ([6]; single IV dose, 6 h): BLQ | plasma concentration of released INA (mean) ([6]; single IV dose, 6 h): BLQ | plasma concentration of unchanged 1d (mean) ([6]; single IV dose, 6 h): BLQ | plasma concentration of released AcINH (mean) ([6]; single IV dose, 8 h): BLQ | plasma concentration of released INA (mean) ([6]; single IV dose, 8 h): BLQ | plasma concentration of unchanged 1d (mean) ([6]; single IV dose, 8 h): BLQ | plasma concentration of released AcINH (mean) ([6]; single IV dose, 24 h): BLQ | plasma concentration of released INA (mean) ([6]; single IV dose, 24 h): BLQ | plasma concentration of unchanged 1d (mean) ([6]; single IV dose, 24 h): BLQ | AUC5m–24h, released AcINH ([6]; single IV dose, INH 1 mg/kg or molar equivalent): no AcINH was observed and BLQ | concentration at 0.33 h [7, 19]: 18700 ng/mL | concentration at 1 h [7, 19]: 10400 ng/mL | concentration at 2 h [7, 19]: 4620 ng/mL | concentration at 4 h [7, 19]: 942 ng/mL | concentration at 6 h [7, 19]: 347 ng/mL | concentration at 24 h [7, 19]: 152 ng/mL | plasma concentration of released AcINH (mean) ([7]; single oral dose, 0.33 h): BLQ | plasma concentration of released AcINH (mean) ([7]; single oral dose, 1 h): BLQ | plasma concentration of released AcINH (mean) ([7]; single oral dose, 2 h): BLQ | plasma concentration of released AcINH (mean) ([7]; single oral dose, 4 h): BLQ | plasma concentration of released INA (mean) ([7]; single oral dose, 4 h): BLQ | plasma concentration of free INH (mean) ([7]; single oral dose, 6 h): BLQ | plasma concentration of released AcINH (mean) ([7]; single oral dose, 6 h): BLQ | plasma concentration of released INA (mean) ([7]; single oral dose, 6 h): BLQ | plasma concentration of free INH (mean) ([7]; single oral dose, 24 h): BLQ | plasma concentration of released AcINH (mean) ([7]; single oral dose, 24 h): BLQ | plasma concentration of released INA (mean) ([7]; single oral dose, 24 h): BLQ | AUC5m–24h, released AcINH ([7]; single oral dose, INH 10 mg/kg or molar equivalent): BLQ | Vd, unchanged prodrug ([7]; single oral dose, molar equivalent of 10 mg/kg INH): 1.121 ± 0.345 L/kg | plasma level of AcHz formed in vivo ([7]; single oral dose): BLQ | liver tissue levels of pyridoxal and pyridoxal-5′-phosphate [8]: comparable | solubility at 24 h ([9]; Tris HCl buffer): 18.6 mg/mL | % of prodrug remaining at 20 h, mice plasma ([16]; 37 °C, ex vivo): 23.8% | eAUC20m–20h in mice plasma, prodrug ([16]; 20 h ex vivo incubation): 987 ± 154 ng·h/mL | eAUC0–20h in stomach homogenate, prodrug ([17]; 20 h): 433,081 ng·h/mL | percentage of prodrug remaining after 20 h of incubation, stomach homogenate ([17]; ex vivo): 3% | concentration at 2 h ([10]; 1 mg/kg): 332 ng/mL | concentration at 6 h ([10]; 1 mg/kg): 146 ng/mL | concentration at 2 h ([10]; 3 mg/kg): 578 ng/mL | concentration at 6 h ([10]; 3 mg/kg): 151 ng/mL | concentration at 2 h ([10]; 10 mg/kg): 2030 ng/mL | concentration at 6 h ([10]; 10 mg/kg): 217 ng/mL | eAUC20m–6h (unchanged 1d) ([10]; single oral dose 1 mg/kg): 2916 ± 1005 ng·h/mL | eAUC20m–6h (unchanged 1d) ([10]; single oral dose 3 mg/kg): 5799 ± 858 ng·h/mL | eAUC20m–6h (unchanged 1d) ([10]; single oral dose 10 mg/kg): 20,138 ± 2821 ng·h/mL | chemical stability, DMSO: percentage of parent remaining [11]: 100.0%
